From PubChem BioAssay AID2060887 (Molecular Pharmacology Branch, DTP, NCI, 2025)

System: 782815-120-R-J1-PDC complex spheroid viability
Assay: Anticancer human tumor 782815-120-R-J1-PDC patient-derived colon adenocarcinoma cell line growth inhibition [RAS]
Conditions: for IC50: curve of first compound; for viability, T/C: stronger effect = lower value
Summary of the method: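 Agents were tested in combination matrices in half-log decrements from a top concentration at or near clinical Cmax (10 microM if undetermined). Targets were multi-cell spheroids of tumour lines plus HUVEC and MSC stromal cells.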

[1] = second compound 0.00316 µM, first compound 0.0316 µM
[2] = second compound 0.00316 µM, first compound 0.1 µM
[3] = second compound 0.00316 µM, first compound 0.316 µM
[4] = second compound 0.00316 µM, first compound 1 µM
[5] = second compound 0.01 µM, first compound 0.0316 µM
[6] = second compound 0.01 µM, first compound 0.1 µM
[7] = second compound 0.01 µM, first compound 0.316 µM
[8] = second compound 0.01 µM, first compound 1 µM
[9] = second compound 0.0316 µM, first compound 0.0316 µM
[10] = second compound 0.0316 µM, first compound 0.1 µM
[11] = second compound 0.0316 µM, first compound 0.316 µM
[12] = second compound 0.0316 µM, first compound 1 µM
[13] = second compound 0.1 µM, first compound 0.0316 µM
[14] = second compound 0.1 µM, first compound 0.1 µM
[15] = second compound 0.1 µM, first compound 0.316 µM
[16] = second compound 0.1 µM, first compound 1 µM
[17] = second compound 0.316 µM, first compound 0.0316 µM
[18] = second compound 0.316 µM, first compound 0.1 µM
[19] = second compound 0.316 µM, first compound 0.316 µM
[20] = second compound 0.316 µM, first compound 1 µM
[21] = second compound 1 µM, first compound 0.0316 µM
[22] = second compound 1 µM, first compound 0.1 µM
[23] = second compound 1 µM, first compound 0.316 µM
[24] = second compound 1 µM, first compound 1 µM
[25] = second compound 0.00316 µM, first compound 0.000949 µM
[26] = second compound 0.00316 µM, first compound 0.003 µM
[27] = second compound 0.00316 µM, first compound 0.00949 µM
[28] = second compound 0.00316 µM, first compound 0.03 µM
[29] = second compound 0.00316 µM, first compound 0.0949 µM
[30] = second compound 0.00316 µM, first compound 0.3 µM
[31] = second compound 0.01 µM, first compound 0.000949 µM
[32] = second compound 0.01 µM, first compound 0.003 µM
[33] = second compound 0.01 µM, first compound 0.00949 µM
[34] = second compound 0.01 µM, first compound 0.03 µM
[35] = second compound 0.01 µM, first compound 0.0949 µM
[36] = second compound 0.01 µM, first compound 0.3 µM
[37] = second compound 0.0316 µM, first compound 0.000949 µM
[38] = second compound 0.0316 µM, first compound 0.003 µM
[39] = second compound 0.0316 µM, first compound 0.00949 µM
[40] = second compound 0.0316 µM, first compound 0.03 µM
[41] = second compound 0.0316 µM, first compound 0.0949 µM
[42] = second compound 0.0316 µM, first compound 0.3 µM
[43] = second compound 0.1 µM, first compound 0.000949 µM
[44] = second compound 0.1 µM, first compound 0.003 µM
[45] = second compound 0.1 µM, first compound 0.00949 µM
[46] = second compound 0.1 µM, first compound 0.03 µM
[47] = second compound 0.1 µM, first compound 0.0949 µM
[48] = second compound 0.1 µM, first compound 0.3 µM
[49] = second compound 0.316 µM, first compound 0.000949 µM
[50] = second compound 0.316 µM, first compound 0.003 µM
[51] = second compound 0.316 µM, first compound 0.00949 µM
[52] = second compound 0.316 µM, first compound 0.03 µM
[53] = second compound 0.316 µM, first compound 0.0949 µM
[54] = second compound 0.316 µM, first compound 0.3 µM
[55] = second compound 1 µM, first compound 0.000949 µM
[56] = second compound 1 µM, first compound 0.003 µM
[57] = second compound 1 µM, first compound 0.00949 µM
[58] = second compound 1 µM, first compound 0.03 µM
[59] = second compound 1 µM, first compound 0.0949 µM
[60] = second compound 1 µM, first compound 0.3 µM
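Further: spheroids exposed to compounds for 7 days before reading.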
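Wherever viability, T/C is given: 100% = DMSO vehicle control viability.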

CC(=O)OC12COC1CC(O)C1(C)C(=O)C(O)C3=C(C)C(OC(=O)C(O)C(NC(=O)OC(C)(C)C)c4ccccc4)CC(O)(C(OC(=O)c4ccccc4)C21)C3(C)C (stereo not drawn) + C=CC(=O)N1CCN(c2nc(OCC3CCCN3C)nc3c(F)c(-c4nc(N)cc(C)c4C(F)(F)F)c(Cl)cc23)C(C)C1
IC50 (second compound 0.00316 µM): < 31.6 nM | IC50 (second compound 0.01 µM): < 31.6 nM | IC50 (second compound 0.0316 µM): < 31.6 nM | IC50 (second compound 0.1 µM): < 31.6 nM | IC50 (second compound 0.316 µM): < 31.6 nM | IC50 (second compound 1 µM): < 31.6 nM | viability, T/C [1]: 33.6% | viability, T/C [2]: 31.1% | viability, T/C [3]: 25.6% | viability, T/C [4]: 23.6% | viability, T/C (second compound 0.00316 µM, first compound 3.16 µM): 28.3% | viability, T/C (second compound 0.00316 µM, first compound 10 µM): 33.2% | viability, T/C [5]: 34.1% | viability, T/C [6]: 32% | viability, T/C [7]: 25.7% | viability, T/C [8]: 22.3% | viability, T/C (second compound 0.01 µM, first compound 3.16 µM): 25% | viability, T/C (second compound 0.01 µM, first compound 10 µM): 34.1% | viability, T/C [9]: 40% | viability, T/C [10]: 24.2% | viability, T/C [11]: 23.6% | viability, T/C [12]: 27.6% | viability, T/C (second compound 0.0316 µM, first compound 3.16 µM): 23.6% | viability, T/C (second compound 0.0316 µM, first compound 10 µM): 34.7% | viability, T/C [13]: 36.8% | viability, T/C [14]: 30.4% | viability, T/C [15]: 20.3% | viability, T/C [16]: 22.9% | viability, T/C (second compound 0.1 µM, first compound 3.16 µM): 25% | viability, T/C (second compound 0.1 µM, first compound 10 µM): 29.2% | viability, T/C [17]: 37.4% | viability, T/C [18]: 27.4% | viability, T/C [19]: 25% | viability, T/C [20]: 23.5% | viability, T/C (second compound 0.316 µM, first compound 3.16 µM): 28.4% | viability, T/C (second compound 0.316 µM, first compound 10 µM): 29.6% | viability, T/C [21]: 38.1% | viability, T/C [22]: 26.9% | viability, T/C [23]: 27.4% | viability, T/C [24]: 23.6% | viability, T/C (second compound 1 µM, first compound 3.16 µM): 27.5% | viability, T/C (second compound 1 µM, first compound 10 µM): 33.3%

CC1(C)CCC(Nc2ncc(C(F)(F)F)c(-c3c[nH]c4c(P(C)(C)=O)c(C#N)ccc34)n2)CN1 (stereo not drawn) + C=CC(=O)N1CCN(c2nc(OCC3CCCN3C)nc3c(F)c(-c4nc(N)cc(C)c4C(F)(F)F)c(Cl)cc23)C(C)C1
IC50 (second compound 0.00316 µM): > 300 nM | IC50 (second compound 0.01 µM): > 300 nM | IC50 (second compound 0.0316 µM): > 300 nM | IC50 (second compound 0.1 µM): > 300 nM | IC50 (second compound 0.316 µM): > 300 nM | IC50 (second compound 1 µM): 270 nM | viability, T/C [25]: 106% | viability, T/C [26]: 113% | viability, T/C [27]: 88.4% | viability, T/C [28]: 63.7% | viability, T/C [29]: 68.8% | viability, T/C [30]: 58.3% | viability, T/C [31]: 97.7% | viability, T/C [32]: 101% | viability, T/C [33]: 88.7% | viability, T/C [34]: 72.9% | viability, T/C [35]: 49.5% | viability, T/C [36]: 59.6% | viability, T/C [37]: 107% | viability, T/C [38]: 103% | viability, T/C [39]: 90.8% | viability, T/C [40]: 77.2% | viability, T/C [41]: 57.8% | viability, T/C [42]: 52.3% | viability, T/C [43]: 107% | viability, T/C [44]: 104% | viability, T/C [45]: 88.7% | viability, T/C [46]: 68.2% | viability, T/C [47]: 55.5% | viability, T/C [48]: 56.8% | viability, T/C [49]: 103% | viability, T/C [50]: 97.2% | viability, T/C [51]: 90.9% | viability, T/C [52]: 67.2% | viability, T/C [53]: 77.3% | viability, T/C [54]: 55.3% | viability, T/C [55]: 120% | viability, T/C [56]: 97.1% | viability, T/C [57]: 85.8% | viability, T/C [58]: 63.3% | viability, T/C [59]: 65.2% | viability, T/C [60]: 53.3%

CCc1c2c(nc3ccc(O)cc13)-c1cc3c(c(=O)n1C2)COC(=O)[C@]3(O)CC + C=CC(=O)N1CCN(c2nc(OCC3CCCN3C)nc3c(F)c(-c4nc(N)cc(C)c4C(F)(F)F)c(Cl)cc23)C(C)C1
IC50 (second compound 0.00316 µM): 4.1 nM | IC50 (second compound 0.01 µM): 3.93 nM | IC50 (second compound 0.0316 µM): 4.6 nM | IC50 (second compound 0.1 µM): 3.92 nM | IC50 (second compound 0.316 µM): 4.07 nM | IC50 (second compound 1 µM): 4.39 nM | viability, T/C [25]: 91.2% | viability, T/C [26]: 60.4% | viability, T/C [27]: 22.1% | viability, T/C [28]: 9.72% | viability, T/C [29]: 3.7% | viability, T/C [30]: 1.61% | viability, T/C [31]: 97.2% | viability, T/C [32]: 58.9% | viability, T/C [33]: 21.3% | viability, T/C [34]: 9.84% | viability, T/C [35]: 3.15% | viability, T/C [36]: 1.53% | viability, T/C [37]: 99.2% | viability, T/C [38]: 67.4% | viability, T/C [39]: 20% | viability, T/C [40]: 9.96% | viability, T/C [41]: 3.02% | viability, T/C [42]: 1.51% | viability, T/C [43]: 92.8% | viability, T/C [44]: 59.4% | viability, T/C [45]: 19.2% | viability, T/C [46]: 8.28% | viability, T/C [47]: 4.23% | viability, T/C [48]: 1.49% | viability, T/C [49]: 100% | viability, T/C [50]: 60.7% | viability, T/C [51]: 20.4% | viability, T/C [52]: 9.08% | viability, T/C [53]: 3.9% | viability, T/C [54]: 1.28% | viability, T/C [55]: 99.3% | viability, T/C [56]: 65% | viability, T/C [57]: 19.3% | viability, T/C [58]: 10.1% | viability, T/C [59]: 3.83% | viability, T/C [60]: 1.36%

Nc1ccn(C2OC(CO)C(O)C2(F)F)c(=O)n1 (stereo not drawn) + C=CC(=O)N1CCN(c2nc(OCC3CCCN3C)nc3c(F)c(-c4nc(N)cc(C)c4C(F)(F)F)c(Cl)cc23)C(C)C1
IC50 (second compound 0.00316 µM): 62.7 nM | IC50 (second compound 0.01 µM): 53.2 nM | IC50 (second compound 0.0316 µM): 58.9 nM | IC50 (second compound 0.1 µM): 53.6 nM | IC50 (second compound 0.316 µM): 60.4 nM | IC50 (second compound 1 µM): 61.4 nM | viability, T/C (second compound 0.00316 µM, first compound 0.00316 µM): 90.9% | viability, T/C (second compound 0.00316 µM, first compound 0.01 µM): 81.2% | viability, T/C [1]: 56.9% | viability, T/C [2]: 46.9% | viability, T/C [3]: 24.7% | viability, T/C [4]: 19.1% | viability, T/C (second compound 0.01 µM, first compound 0.00316 µM): 93.9% | viability, T/C (second compound 0.01 µM, first compound 0.01 µM): 82% | viability, T/C [5]: 57.8% | viability, T/C [6]: 40.7% | viability, T/C [7]: 23.6% | viability, T/C [8]: 21% | viability, T/C (second compound 0.0316 µM, first compound 0.00316 µM): 99% | viability, T/C (second compound 0.0316 µM, first compound 0.01 µM): 83.5% | viability, T/C [9]: 57.9% | viability, T/C [10]: 43.6% | viability, T/C [11]: 27.1% | viability, T/C [12]: 21.7% | viability, T/C (second compound 0.1 µM, first compound 0.00316 µM): 93.3% | viability, T/C (second compound 0.1 µM, first compound 0.01 µM): 85.7% | viability, T/C [13]: 54.3% | viability, T/C [14]: 41.3% | viability, T/C [15]: 31.2% | viability, T/C [16]: 21.5% | viability, T/C (second compound 0.316 µM, first compound 0.00316 µM): 92.3% | viability, T/C (second compound 0.316 µM, first compound 0.01 µM): 77.6% | viability, T/C [17]: 61.6% | viability, T/C [18]: 40.9% | viability, T/C [19]: 29.4% | viability, T/C [20]: 21.4% | viability, T/C (second compound 1 µM, first compound 0.00316 µM): 92% | viability, T/C (second compound 1 µM, first compound 0.01 µM): 85.8% | viability, T/C [21]: 58.8% | viability, T/C [22]: 43% | viability, T/C [23]: 29.2% | viability, T/C [24]: 23.1%
